According to patent publication US20180303807A1, “ANDROGEN RECEPTOR LIGANDS” (DUKE UNIVERSITY, priority 2015, published 2018):

Tested on: AR
Assay: Real-time PCR of AR target gene transcription in LNCaP-AR (AR overexpressing) cells, CRPC model
Assay type: cell-based
Parameters: key to B5 = Relative antagonist activity (plus 0.1 nM R1881) of test compounds (20 μM) in AR overexpressing LNCaP cells (NKX3.1 AR target gene) / B7 = Relative antagonist activity (plus 0.1 nM R1881) of test compounds (20 μM) in AR overexpressing LNCaP cells (PSA AR target gene): a score of 1 indicates higher antagonist efficacy (highly desired activity) than benchmark compound enzalutamide; a score of 2 indicates equal antagonist efficacy to enzalutamide (desirable); a score of 3 indicates antagonist efficacy between enzalutamide and bicalutamide (less desirable activity); a score of 4 indicates antagonist efficacy equal to bicalutamide (liability); a score of 5 indicates antagonist efficacy worse than bicalutamide (liability); key to B4 = Relative agonist activity (no R1881) of test compounds (20 μM) in AR overexpressing LNCaP cells (NKX3.1 AR target gene) / B6 Relative agonist activity (no R1881) of test compounds (20 μM) in AR overexpressing LNCaP cells (PSA AR target gene): a score of 1 indicates less agonism (highly desired activity) than benchmark compound enzalutamide; a score of 2 indicates equal agonism to enzalutamide (desirable); a score of 3 indicates agonism between enzalutamide and bicalutamide (less desirable activity); a score of 4 indicates equal agonism to bicalutamide (liability); a score of 5 indicates higher agonism than bicalutamide (liability)
Conditions: 20 μM, score vs enzalutamide/bicalutamide; for B4 = Relative agonist activity (no R1881) of test compounds (20 μM) in AR overexpressing LNCaP cells (NKX3.1 AR target gene): no R1881, NKX3.1 gene; for B5 = Relative antagonist activity (plus 0.1 nM R1881) of test compounds (20 μM) in AR overexpressing LNCaP cells (NKX3.1 AR target gene): plus 0.1 nM R1881, NKX3.1 gene; for B7 = Relative antagonist activity (plus 0.1 nM R1881) of test compounds (20 μM) in AR overexpressing LNCaP cells (PSA AR target gene): plus 0.1 nM R1881, PSA gene
Procedure: Real-Time PCR (CRPC model of AR overexpressing prostate cancer cells, Table 2, B4-B7). LNCaP-AR (AR overexpressing cells) cells were seeded in 12-well plates in RPMI 1640 (8% charcoal-stripped fetal calf serum (CFS)). […] AR target gene transcription (PSA, NKX3.1, FKBP5) was assessed by realtime PCR.
For B4-B7, scoring system is based on the relative AR target gene agonist/antagonist activity of test compounds when compared to benchmark compounds enzalutamide or bicalutamide. […] The lack of agonist activity is desirable for therapies intended to treat CRPC. For B4 and B6, a score of 1 indicates less agonism (highly desired activity) than benchmark compound enzalutamide, a score of 2 indicates equal agonism to enzalutamide (desirable), a score of 3 indicates agonism between enzalutamide and bicalutamide (less desirable activity), a score of 4 indicates equal agonism to bicalutamide (liability), and a score of 5 indicates higher agonism than bicalutamide (liability). For B5 and B7 a score of 1 indicates higher antagonist efficacy (highly desired activity) than benchmark compound enzalutamide, a score of 2 indicates equal antagonist efficacy to enzalutamide (desirable), a score of 3 indicates antagonist efficacy between enzalutamide and bicalutamide (less desirable activity), a score of 4 indicates antagonist efficacy equal to bicalutamide (liability), and a score of 5 indicates antagonist efficacy worse than bicalutamide (liability) For B9, Compounds that degrade AR (greater than 50% degradation at 10 μM) are indicated.

| SMILES | B4 = Relative agonist activity (no R1881) of test compounds (20 μM) in AR overexpressing LNCaP cells (NKX3.1 AR target gene) | B6 Relative agonist activity (no R1881) of test compounds (20 μM) in AR overexpressing LNCaP cells (PSA AR target gene) | B5 = Relative antagonist activity (plus 0.1 nM R1881) of test compounds (20 μM) in AR overexpressing LNCaP cells (NKX3.1 AR target gene) | B7 = Relative antagonist activity (plus 0.1 nM R1881) of test compounds (20 μM) in AR overexpressing LNCaP cells (PSA AR target gene) |
| --- | --- | --- | --- | --- |
| O=C1CCCC2=C1C(c1ccc([N+](=O)[O-])cc1)c1c(ccc3ccccc13)N2 (stereo not drawn) [Compound A1, 12-(4-nitrophenyl)-8,9,10,12-tetrahydrobenzo[a]acridin-11(7H)-one] | 1 | 1 | 2 | 2 |
| CC1CC(=O)C2=C(C1)Nc1ccc3ccccc3c1C2c1ccc(F)cc1 (stereo not drawn) [Compound A4] | 1 | 1 | 1 | 1 |
| O=C1CCCC2=C1Nc1ccc3ccccc3c1C2c1ccc([N+](=O)[O-])cc1 (stereo not drawn) [Compound A10] | 2 | 1 | 2 | 1 |
